Data published in patent publication US9028855B2, “Plant additives and uses thereof to modulate the synthesis of membrane glycerolipids in planta” (Commissariat a l'Energie Atomique et aux Energies …, priority 2009, dated 2015).

Experiments:
A. thaliana = experiment: Root growth (primary root) of plants on high phosphate medium supplied with compound; assay type: in vivo; details: expressed as a percentage having regard to a control; +P control 100, −P 20
From the text: In response to phosphate starvation, the primary root growth is inhibited (Svistoonoff et al., 2007).

[1] = tested on: phosphate transporter PHT1;4; experiment: 8′G::GUS, follow-up of the expression of the phosphate transporter PHT1;4 (GUS staining); assay type: in vivo, A. thaliana; details: compound added to the cultivation medium
From the text: 8′G cell line was obtained as follows: for the PHT1;4 promoter fusion, a 2 kb region upstream of the ORF of PHT1;4 was cloned in the vector pENTR/D-TOPO (pENTRT™/D-TOPO® Cloning Kit, ref. K2400-20, Invitrogen) and transferred to pKGWFS7 (Karimi et al., 2002) by recombination using Gateway BP (Gateway® BP Clonase® enzyme mix, ref. 11789-013, Invitrogen) and LR Clonase enzyme mixes (LR Clonase® II Plus enzyme, ref. 12538-120, Invitrogen), respectively, to produce the pPHT1;4:GUS-GFP gene fusion. This fusion was then introduced into the Arabidopsis genome via the Agrobacterium-mediated transformation system (Logemann et al., 2006).
(§1) Plants were examined for GUS activity by dipping the samples in a GUS staining solution (50 mM sodium phosphate buffer pH 7.0; 0.01% Triton X-100, 1 mM K3Fe(CN)6, 1 mM K4Fe(CN)6, 1 mg/ml 5-dromo-4-chloro-3-indolyl (3-D-GLUCURONIDE (X-Gluc A) and incubated at 37° C. over-night. After staining, the plants were fixed 2 hours in 50 mM sodium phosphate buffer pH 7.0; 1% glutaraldehyde; 4% formaldehyde.

iron transporter IRT1 = experiment: IRT1::GUS, follow-up of the expression of the gene encoding the iron transporter IRT1 (GUS staining); assay type: in vivo, A. thaliana; details: compound added to the cultivation medium; MC2 5 μM, FIG. 13
Description: as §1, with “pIRT1:GUS cells were obtained as described by Vert et al. (Vert et al., 2002) and carry a irt1 promoter-GUS fusion. […] Plants” for “Plants”

enzyme MGD3 = experiment: MGD3::GUS, follow-up of the expression of the gene encoding the enzyme MGD3 (GUS staining); assay type: in vivo, A. thaliana; details: high phosphate medium + MC2 5 μM, FIG. 9
Description: pMGD3:GUS cells are as described by Kobayashi et al. (Kobayashi et al., 2004). In these cells, the GUS reporter is expressed under the control of the mgd3 promoter. […] Plants were examined for GUS activity by dipping the samples in a GUS staining solution (50 mM sodium phosphate buffer pH 7.0; 0.01% Triton X-100, 1 mM K3Fe(CN)6, 1 mM K4Fe(CN)6, 1 mg/ml 5-dromo-4-chloro-3-indolyl (3-D-GLUCURONIDE (X-Gluc A) and incubated at 37° C. over-night. After staining, the plants were fixed 2 hours in 50 mM sodium phosphate buffer pH 7.0; 1% glutaraldehyde; 4% formaldehyde. In response to phosphate starvation, the lipid metabolism is modified (Benning and Ohta, 2005). Plants preferentially synthesize sulpho- and galacto-lipids instead of phospholipids. Several enzymes are involved in this remobilisation.

Cyclin B1 = experiment: CycB1::GUS, follow-up of the expression of the gene encoding Cyclin B1 (meristematic activity marker); assay type: in vivo, A. thaliana; details: high phosphate medium + MC2 5 μM, FIG. 6
From the text: pCycB1;1:GUS cell line is as described by Colón-Carmona et al. (Colon-Carmona et al., 1999), and expresses the GUS reporter under the control of the promoter of the cyclin B1 gene. […] In response to phosphate deficiency, CycB1 is less expressed. Suprisingly, in response to MC2, the meristematic activity is not reduced (FIG. 6). Thus, it can be concludes that the primary root growth inhibition observed in response to the molecule is not due to inhibition of the meristematic activity.

PHT1;4 = experiment: Chemical genetic screen, pPHT1;4::GUS line (GUS activity in root tip); assay type: in vivo, A. thaliana; details: plant grown on high phosphate medium (500 μM), FIG. 2
Description: pPHT1;4::GUS (DCJ 10) cell line is as described by Misson et al. (Misson et al., 2004). This cell line expresses the GUS reporter under the control of the promoter of the pht1;4 gene.
as §1
Chemical genetic screen was based on PHT1;4 expression using the line pPHT1;4::GUS (Misson et al., 2004). […] The formula of MC2 is the following: […]

wild-type seedlings = experiment: Free cellular Pi content (malachite green method); assay type: in vivo, A. thaliana; details: high phosphate medium + MC2 5 μM vs control condition, FIG. 3
Description: Three replicates were performed for each experiment. After 5 min of centrifugation, the supernatant was recovered. Phosphate content was measured using the malachite green method as described (Delhaize and Randall, 1995). One hundred and fifty microliters of molybdate solution (17.55 g/l (NH4)6Mo7, 4H2O, 2M H2SO4) were added to the sample (50 μl) diluted in water (700 μl). Ten minutes later, 150 μl of green malachite solution (3.5 g/l polyvinylic alcohol, 0.35 g/l malachite green) were then added. Measurements were carried out at 610 nm after 2 h. Concentrations were calculated using a calibration curve (performed with aKH2PO4 solution) and expressed per fresh weight. To evaluate if this expression interferes with phosphate content, phosphate content was analyzed in different conditions: high phosphate medium (+Pi), low phosphate medium (−Pi) and high phosphate medium+MC2, 5 μM (+Pi, +MC2 5 μM). […] This phosphate accumulation can be easily explained by the overexpression of the phosphate transporter.

Acid phosphatase = Acid phosphatase activity in root extract (spectrophotometric); assay type: in vivo; details: 10 days old plants, high phosphate medium + 5 μM MC2, FIG. 4
Description: FIG. 4: Acid phosphatase activity was assayed spectrophotometrically in root extract from 10 days old plants grown in high phosphate medium, in low phosphate medium or in high phosphate medium supplied with 5 μM of MC2. Values represent the mean of 3 experiments±SD.
In response to phosphate deficiency, plants are able to secrete phosphatase in soil in order to remobilize phosphate from soil.

ferritin = experiment: Western blot of plant ferritin on leaf protein extracts; assay type: in vivo; details: leaves, high phosphate medium + MC2 5 μM, FIG. 12
From the text: After SDS-PAGE in a 12% acrylamide gel and transfer onto a nitrocellulose membrane, ferritin was immunodetected with a primary rabbit polyclonal antibody against AtFER1 and a secondary goat antirabbit antibody conjugated with alkaline phosphatase.
From previous study in the lab, it is known that in response to phosphate starvation, iron is accumulated in cells inducing ferritin accumulation (Hirsch et al., 2006). To determine MC2 effect on iron metabolism, the iron content was quantified by ICP-OES (FIG. 11), accumulation of ferritin was analyzed by Western Blot (FIG. 12) and finally IRT1 gene expression was analyzed, since this gene encodes an iron transporter (FIG. 12).

MGD3 expression (in words) (enzyme MGD3): strongly expressed
phosphatase activity (Acid phosphatase): inducing phosphatase activity
Compound: Cc1cccc(NC=C2C(=O)CC(C)(C)CC2=O)n1 [MC2]
Root Growth (A. thaliana): 51 % of control
PHT1;4 expression (in words, summary of analogues) [1]: induce expression of the Pht1;4 gene
IRT1 expression (in words) (iron transporter IRT1): inhibits IRT1 expression
meristematic activity (CycB1 expression, in words) (Cyclin B1): not reduced
expression of PHT1;4 (pPHT1;4::GUS) (PHT1;4): induce the expression of PHT1;4
phosphate accumulation in leaves (wild-type seedlings): two times more
phosphate accumulation in roots (wild-type seedlings): two times more
ferritin accumulation (Western blot) (ferritin): not in response to MC2 treatment
